Reference: EP1247803A2, “Indolinone compounds suitable for modulation of protein kinases” (Sugen, Inc., priority 1996, dated 1998)

Legend:
FLK-1 receptor = molecular target: T1, FLK-1 receptor (Mus musculus, UniProt P35918); assay: FLK-1 ELISA (kinase activity of the FLK-1 receptor in FLK-1/NIH3T3 cells, VEGF stimulated); assay type: cell-based
T1 construct: expressed in transfected cells; host or cells: NIH3T3 C7#3
In short: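 NIH3T3 C7#3 cells expressing FLK-1 were seeded at 25.000 cells/well, serum-starved overnight in 0.1% FBS, then treated with compound for two hours at 37°C (final DMSO 0.5%) before VEGF stimulation. Receptor was captured on anti-rabbit IgG-coated ELISA plates bearing affinity-purified anti-FLK-1 antiserum.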

MET = MET biochemical kinase assay; design: species or system human; concentration or dose not given beside the values
In short: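 Lysate-derived MET, or chimeric receptors, is immobilised on plates through an antibody to the human MET cytoplasmic region. Compounds are added along with kinase buffer supplying ATP and divalent metal ions, and receptor autophosphorylation is quantified by anti-phosphotyrosine ELISA.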

T1 sequence (P35918 20-1345): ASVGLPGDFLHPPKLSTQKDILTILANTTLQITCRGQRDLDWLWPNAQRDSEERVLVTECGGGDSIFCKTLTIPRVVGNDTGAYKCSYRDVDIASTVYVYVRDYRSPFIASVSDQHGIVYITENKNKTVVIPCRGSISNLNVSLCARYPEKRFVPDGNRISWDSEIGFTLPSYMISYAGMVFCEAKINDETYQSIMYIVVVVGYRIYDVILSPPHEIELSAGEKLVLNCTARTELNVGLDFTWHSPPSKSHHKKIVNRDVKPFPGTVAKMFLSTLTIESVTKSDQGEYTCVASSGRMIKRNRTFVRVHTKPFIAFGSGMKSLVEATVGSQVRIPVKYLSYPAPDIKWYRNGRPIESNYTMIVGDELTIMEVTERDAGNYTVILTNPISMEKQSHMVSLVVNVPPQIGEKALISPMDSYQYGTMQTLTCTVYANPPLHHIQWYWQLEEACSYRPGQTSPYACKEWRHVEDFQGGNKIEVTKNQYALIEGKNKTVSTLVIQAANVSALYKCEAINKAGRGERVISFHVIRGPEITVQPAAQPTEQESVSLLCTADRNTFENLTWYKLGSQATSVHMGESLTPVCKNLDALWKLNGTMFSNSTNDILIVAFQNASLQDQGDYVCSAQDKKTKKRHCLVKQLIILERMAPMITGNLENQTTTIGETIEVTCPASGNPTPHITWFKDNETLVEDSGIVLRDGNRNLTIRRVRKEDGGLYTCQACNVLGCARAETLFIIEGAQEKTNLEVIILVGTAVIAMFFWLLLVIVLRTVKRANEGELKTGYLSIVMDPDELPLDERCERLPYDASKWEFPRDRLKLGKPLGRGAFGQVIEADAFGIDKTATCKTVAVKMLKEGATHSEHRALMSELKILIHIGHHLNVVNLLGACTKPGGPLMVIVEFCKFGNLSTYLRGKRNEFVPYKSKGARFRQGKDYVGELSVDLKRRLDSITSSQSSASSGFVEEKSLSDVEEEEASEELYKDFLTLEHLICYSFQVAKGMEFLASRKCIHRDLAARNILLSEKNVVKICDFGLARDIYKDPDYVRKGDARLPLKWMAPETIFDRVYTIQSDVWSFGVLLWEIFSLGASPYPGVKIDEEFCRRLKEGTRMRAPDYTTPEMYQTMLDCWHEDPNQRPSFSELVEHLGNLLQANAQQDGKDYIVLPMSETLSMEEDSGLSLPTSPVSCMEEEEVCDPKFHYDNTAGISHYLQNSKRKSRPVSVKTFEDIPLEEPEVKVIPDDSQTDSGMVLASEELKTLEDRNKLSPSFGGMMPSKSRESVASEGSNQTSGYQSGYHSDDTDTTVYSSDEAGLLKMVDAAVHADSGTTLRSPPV

Compound	Fik Kinase %Inhibition (FLK-1 receptor)	Met Kinase % Inhibition (MET)
CCOc1cccc(C=C2C(=O)Nc3ccc(S(=O)(=O)NC)cc32)c1O [10734/D02]	-11.5%	46.0%
O=C1Nc2ccc(I)cc2C1=Cc1cc(Br)cc(Br)c1O [10734/B07]	9.1%	93.2%
COc1cc(Br)cc(C=C2C(=O)Nc3ccc(S(=O)(=O)Nc4ccc(C(F)(F)F)cc4)cc32)c1O [10733/E08]	-5.1%	81.1%
COc1c(O)ccc(C=C2C(=O)Nc3ccc(S(=O)(=O)Nc4ccc(C(F)(F)F)cc4)cc32)c1[N+](=O)[O-] [10733/E11]	5.5%	71.8%
CC(C)(C)c1cc(C=C2C(=O)Nc3ccc(S(=O)(=O)N4CCOCC4)cc32)cc(I)c1OCc1ccccc1 [10733/F02]	-15.7%	71.6%
COc1c(C(C)(C)C)cc(C=C2C(=O)Nc3ccc(CCCl)cc32)cc1C(C)(C)C [10733/G04]	11.5%	20.3%
CNS(=O)(=O)c1ccc2c(c1)C(=Cc1cc(Br)cc(Br)c1O)C(=O)N2 [10734/D07]	14.7%	92.0%
Cc1c(Br)ccc2c1C(=Cc1ccc(O)c(Br)c1)C(=O)N2 [10734/C09]	-13.3%	88.6%
COc1c([N+](=O)[O-])cc(C=C2C(=O)Nc3ccc(S(=O)(=O)Nc4ccc(C(F)(F)F)cc4)cc32)cc1C(C)(C)C [10733/E03]	42.6%	26.8%
COc1c([N+](=O)[O-])cc(C=C2C(=O)Nc3ccc(CCCl)cc32)cc1C(C)(C)C [10733/G03]	24.7%	30.5%
COc1c(O)ccc(C=C2C(=O)Nc3ccc(S(=O)(=O)N4CCOCC4)cc32)c1[N+](=O)[O-] [10733/F11]	4.1%	44.4%
O=C1Nc2c(Br)cc(Br)cc2C1=Cc1cc(Cl)ccc1O [10734/A04]	0.6%	68.0%
CCN(CC)c1ccc(C=C2C(=O)Nc3ccc(Br)c(C)c32)c(O)c1 [10734/C05]	-10.3%	52.7%
O=C1Nc2ccc(CCCl)cc2C1=Cc1cc(Br)ccc1O [10733/G09]	77.8%	41.4%
Cc1c(Br)ccc2c1C(=Cc1cc(Cl)cc(Cl)c1O)C(=O)N2 [10734/C03]	-5.6%	88.2%
COc1c(O)ccc(C=C2C(=O)Nc3ccc(CCCl)cc32)c1[N+](=O)[O-] [10733/G11]	3.3%	32.6%
Cc1[nH]c(C=C2C(=O)Nc3c(Br)cc(Br)cc32)c(Br)c1Br [10717/A11]	-5.8%	64.8%
O=C1Nc2c(Br)cc(Br)cc2C1=Cc1cccc(F)c1O [10734/A08]	0.1%	71.5%
CNS(=O)(=O)c1ccc2c(c1)C(=Cc1cc(Cl)cc(Cl)c1O)C(=O)N2 [10734/D03]	17.4%	78.6%

Compound	Fik Kinase %Inhibition (FLK-1 receptor)	Met Kinase % Inhibition (MET)
O=C1Nc2ccc(I)cc2C1=Cc1cccc(F)c1O [10734/B08]	-0.5%	56.1%
CNS(=O)(=O)c1ccc2c(c1)C(=Cc1ccc(C(C)(C)C)cc1)C(=O)N2 [10734/D10]	11.1%	20.6%
CCOc1cccc(C=C2C(=O)Nc3ccc(I)cc32)c1O [10734/B02]	8.5%	61.9%
CCN(CC)c1ccc(C=C2C(=O)Nc3ccc(I)cc32)c(O)c1 [10734/B05]	-2.3%	67.8%
COc1c(C(C)(C)C)cc(C=C2C(=O)Nc3ccc(S(=O)(=O)Nc4ccc(C(F)(F)F)cc4)cc32)cc1C(C)(C)C [10733/E04]	2.1%	17.5%
CCOC(=O)c1cc(C=C2C(=O)Nc3ccc(S(=O)(=O)Nc4ccc(C(F)(F)F)cc4)cc32)oc1C [10718/E06]	15.4%	33.4%
CCOc1cccc(C=C2C(=O)Nc3ccc(S(=O)(=O)Nc4ccc(C(F)(F)F)cc4)cc32)c1O [10734/E02]	7.9%	66.9%
CNS(=O)(=O)c1ccc2c(c1)C(=Cc1cccc(F)c1O)C(=O)N2 [10734/D08]	2.5%	49.8%
COc1c(C(C)(C)C)cc(C=C2C(=O)Nc3ccc(S(=O)(=O)N4CCOCC4)cc32)cc1C(C)(C)C [10733/F04]	21.4%	65.1%
CNS(=O)(=O)c1ccc2c(c1)C(=Cc1ccc([N+](=O)[O-])cc1)C(=O)N2 [10734/D06]	0.0%	30.6%
CNS(=O)(=O)c1ccc2c(c1)C(=Cc1cc(Cl)ccc1O)C(=O)N2 [10734/D04]	6.1%	46.9%
O=C1Nc2c(Br)cc(Br)cc2C1=Cc1cc(Br)cc(Br)c1O [10734/A07]	-9.4%	89.3%
COC(=O)c1[nH]c(C)c(C=C2C(=O)Nc3ccc(S(=O)(=O)Nc4ccc(C(F)(F)F)cc4)cc32)c1C(=O)OC [10718/E07]	15.6%	80.5%
O=C1Nc2c(Br)cc(Br)cc2C1=Cc1ccc(O)c(Br)c1 [10734/A09]	-7.9%	88.4%
O=C1Nc2ccc(S(=O)(=O)N3CCOCC3)cc2C1=Cc1cc([N+](=O)[O-])ccc1O [10733/F10]	8.5%	24.4%
O=C1Nc2c(Br)cc(Br)cc2C1=Cc1ccc(Br)s1 [10734/A11]	6.3%	51.9%
CNS(=O)(=O)c1ccc2c(c1)C(=Cc1ccc(O)c(Br)c1)C(=O)N2 [10734/D09]	-11.6%	88.0%
Cc1cc(C=C2C(=O)Nc3ccc(CCCl)cc32)cc(C)c1OCc1ccccc1 [10733/G07]	19.5%	8.5%
O=C1Nc2ccc(I)cc2C1=Cc1ccc(Br)s1 [10734/B11]	12.6%	83.6%

Compound	Fik Kinase %Inhibition (FLK-1 receptor)	Met Kinase % Inhibition (MET)
CNS(=O)(=O)c1ccc2c(c1)C(=Cc1ccc(Br)s1)C(=O)N2 [10734/D11]	9.8%	33.9%
O=C1Nc2ccc(I)cc2C1=Cc1cc(Cl)cc(Cl)c1O [10734/B03]	21.7%	90.1%
O=C1Nc2ccc(S(=O)(=O)Nc3ccc(C(F)(F)F)cc3)cc2C1=Cc1ccc([N+](=O)[O-])o1 [10718/E11]	12.1%	37.5%
Cc1cc(C=C2C(=O)Nc3ccc(S(=O)(=O)N4CCOCC4)cc32)cc(C)c1OCc1ccccc1 [10733/F07]	16.4%	-16.4%
COc1c(C)cc(C=C2C(=O)Nc3ccc(S(=O)(=O)Nc4ccc(C(F)(F)F)cc4)cc32)cc1C [10733/E06]	13.5%	10.4%
CCOc1cccc(C=C2C(=O)Nc3c(Br)cc(Br)cc32)c1O [10734/A02]	4.1%	51.1%
CC(C)(C)c1ccc(C=C2C(=O)Nc3c(Br)cc(Br)cc32)cc1 [10734/A10]	4.4%	55.4%
Cc1c(Br)ccc2c1C(=Cc1ccc([N+](=O)[O-])cc1)C(=O)N2 [10734/C06]	-1.7%	48.3%
O=C1Nc2ccc(S(=O)(=O)Nc3ccc(C(F)(F)F)cc3)cc2C1=Cc1ccco1 [10718/E10]	15.2%	60.8%
Cc1c(Br)ccc2c1C(=Cc1ccc(Br)s1)C(=O)N2 [10734/C11]	6.3%	23.9%
CC(C)(C)c1cc(C=C2C(=O)Nc3ccc(CCCl)cc32)cc(I)c1OCc1ccccc1 [10733/G02]	8.3%	64.5%
COc1c(C)cc(C=C2C(=O)Nc3ccc(CCCl)cc32)cc1C [10733/G06]	37.0%	0.8%
COc1cc(Br)cc(C=C2C(=O)Nc3ccc(CCCl)cc32)c1O [10733/G08]	2.5%	79.0%
CC(C)(C)c1cc(C=C2C(=O)Nc3ccc(CCCl)cc32)cc(C(C)(C)C)c1OCc1ccccc1 [10733/G05]	19.2%	1.8%
Cc1c(Br)ccc2c1C(=Cc1cc(Cl)ccc1O)C(=O)N2 [10734/C04]	-37.6%	90.7%
CCOc1cccc(C=C2C(=O)Nc3ccc(Br)c(C)c32)c1O [10734/C02]	-3.9%	78.6%
COc1c([N+](=O)[O-])cc(C=C2C(=O)Nc3ccc(S(=O)(=O)N4CCOCC4)cc32)cc1C(C)(C)C [10733/F03]	17.5%	24.2%
CCN(CC)c1ccc(C=C2C(=O)Nc3c(Br)cc(Br)cc32)c(O)c1 [10734/A05]	9.1%	69.9%
O=C1Nc2ccc(S(=O)(=O)N3CCOCC3)cc2C1=Cc1cc(Br)ccc1O [10733/F09]	-2.1%	52.8%
